# Source: publication PMC12040169 (PLOS Biology, 2025)
# Experiment: in vitro
# Details: human, hela cells, % viability
row,SMILES,"viability at 28.5 h, 10 µM"
1,COc1ccccc1CN(CCN(C)C)C(=O)Cc1c(C)[nH]c(=O)[nH]c1=O [CBK286343],94.2%
2,Cc1csc(C(Cc2cccs2)NC(=O)Cc2c(C)[nH]c(=O)[nH]c2=O)n1 (centres unmarked) [CBK286345],89.7%
3,COc1ccc2c(c1)OC1(CCN(CC(O)c3ccc(-c4ccccc4)cc3)CC1)CC2O (centres unmarked) [CBK286346],91.2%
4,COc1ccccc1-c1ccc(CN2CCC(NC(C)=O)(c3ccc(F)cc3)CC2)cc1 [CBK286349],90%
5,CC(C)n1c(=O)oc2cc(S(=O)(=O)NC(c3ccccc3)c3ccccc3)ccc21 [CBK286350],91.7%
6,O=C(N[C@H]1CC[C@H](O)CC1)C1(Cc2cc(-c3ccc(F)cc3F)no2)CCOCC1 [CBK286352],94.9%
7,Cc1ccc(C(Cc2ccsc2)NS(=O)(=O)c2ccc3[nH]c(=O)[nH]c(=O)c3c2)nc1 (centres unmarked) [CBK286354],88.6%
8,Cn1c(=O)oc2cc(S(=O)(=O)Nc3cccc(CCc4ccccn4)c3)ccc21 [CBK286357],102%
9,COc1ccc(CN2CCc3cc(OC)c(OC)cc3C2c2ccccc2)cc1CO (centres unmarked) [CBK286358],92.2%
10,COc1cc2c(cc1OC)C(c1ccccc1)N(Cc1ccc(OCCO)cc1)CC2 (centres unmarked) [CBK286359],80%
11,O=c1[nH]c(=O)c2cc(S(=O)(=O)NCCN3CCc4ccccc43)ccc2[nH]1 [CBK286360],91.5%
12,Cn1ccc2cc(NS(=O)(=O)c3ccc4[nH]c(=O)[nH]c(=O)c4c3)ccc21 [CBK286364],95.4%
13,O=C1CCc2cc(S(=O)(=O)Nc3ccc(OCc4ccccc4)cc3)ccc2N1 [CBK286365],90%
14,O=C1CCc2cc(S(=O)(=O)NC(c3ccccc3)c3ccccc3)ccc2N1 [CBK286367],93.4%
15,COc1ccc(-c2ccccc2)cc1NS(=O)(=O)c1ccc2c(c1)CCC(=O)N2 [CBK286368],100%
16,COc1ccc(-c2ccccc2NS(=O)(=O)c2ccc3c(c2)CCC(=O)N3)cc1 [CBK286370],96.8%
17,O=C1CCc2cc(S(=O)(=O)Nc3cccc(-c4ccc(F)cc4)c3)ccc2N1 [CBK286371],102%
18,COc1cccc(-c2ccc(NS(=O)(=O)c3ccc4c(c3)CCC(=O)N4)cc2)c1 [CBK286373],87.1%
19,O=c1[nH]c(=O)c2cc(S(=O)(=O)NC(c3ccccc3)c3ccccc3)ccc2[nH]1 [CBK286375],89.4%
20,O=c1[nH]c(=O)c2cc(S(=O)(=O)Nc3ccccc3Cc3ccccc3)ccc2[nH]1 [CBK286377],94.3%
21,O=c1[nH]c(=O)c2cc(S(=O)(=O)NC3(c4ccccc4)CCCC3)ccc2[nH]1 [CBK286378],110%
22,O=c1[nH]c(=O)c2cc(S(=O)(=O)NC3CCN(Cc4ccccc4)C3)ccc2[nH]1 (centres unmarked) [CBK286380],109%
23,CN(C)C(CNS(=O)(=O)c1ccc2[nH]c(=O)[nH]c(=O)c2c1)c1ccccc1Cl (centres unmarked) [CBK286385],86.7%
24,CCCC1c2cccn2CCN1S(=O)(=O)c1ccc2[nH]c(=O)[nH]c(=O)c2c1 (centres unmarked) [CBK286388],101%
25,O=c1[nH]c(=O)c2cc(S(=O)(=O)NCC3(N4CCOCC4)CCCCC3)ccc2[nH]1 [CBK286390],105%
26,O=c1[nH]c(=O)c2cc(S(=O)(=O)N3CCCC(CN4CCCC4)C3)ccc2[nH]1 (centres unmarked) [CBK286392],88.8%
27,O=c1[nH]c(=O)c2cc(S(=O)(=O)N3CCCCC3CN3CCCCC3)ccc2[nH]1 (centres unmarked) [CBK286393],83.5%

row,SMILES,"viability at 28.5 h, 10 µM"
1,O=c1[nH]c(=O)c2cc(S(=O)(=O)Nc3cccc(-c4ccc(F)cc4)c3)ccc2[nH]1 [CBK286394],84.2%
2,O=c1[nH]c(=O)c2cc(S(=O)(=O)NCc3ccccc3CN3CCCC3)ccc2[nH]1 [CBK286395],108%
3,COc1cc2c(cc1CNS(=O)(=O)c1ccc3[nH]c(=O)[nH]c(=O)c3c1)CCC2 [CBK286396],98.7%
4,O=c1[nH]c(=O)c2cc(S(=O)(=O)Nc3cccc(CCc4ccncc4)c3)ccc2[nH]1 [CBK286397],103%
5,COc1ccc2c(c1)C(O)CC1(CCN(CC(O)c3ccc(-c4ccccc4)cc3)CC1)O2 (centres unmarked) [CBK286398],101%
6,Cc1cc2c(cc1C)C(O)CC1(CCN(CC(=O)NC3CCCCC3)CC1)O2 (centres unmarked) [CBK286399],94%
7,C[C@]12CN(Cc3cccc(C#Cc4ccccc4)c3)C[C@H]1C(=O)Nc1ccccc1C(=O)N2 [CBK286403],94.9%
8,Cc1cc(C2CCCCCN2S(=O)(=O)c2ccc3[nH]c(=O)[nH]c(=O)c3c2)no1 (centres unmarked) [CBK286404],94.2%
9,Cn1cc(Cl)c(C2CCCCCN2S(=O)(=O)c2ccc3[nH]c(=O)[nH]c(=O)c3c2)n1 (centres unmarked) [CBK286408],89.3%
10,O=C(c1ccc2c(c1)N(Cc1ccc(F)cc1)C(=O)CO2)c1cccs1 [CBK286410],92.3%
11,O=C(c1ccc2c(c1)N(Cc1ccccc1Cl)C(=O)CO2)c1cccs1 [CBK286411],94.2%
12,COc1cccc(CN2C(=O)COc3ccc(C(=O)c4cccs4)cc32)c1 [CBK286412],96.1%
13,c1ccc(C(Nc2ncc(-c3cnccn3)c(-c3ccco3)n2)c2ccccc2)cc1 [CBK286413],90%
14,COc1ccc(F)cc1-c1ccccc1CC1(C(=O)NCc2cccs2)CCOCC1 [CBK286416],93.7%
15,Cc1ccc(-c2ccccc2CC2(C(=O)O)CCN(Cc3ccccc3F)CC2)c(C)c1 [CBK286418],96.7%
16,COc1cccc(CN2CCC(Cc3ccccc3-c3ccc(C)cc3C)(C(=O)O)CC2)c1 [CBK286420],95.5%
17,COc1ccc(CN2CCC(Cc3ccccc3-c3ccc(C)cc3C)(C(=O)O)CC2)cc1 [CBK286421],88.5%
18,Cc1ccc(-c2ccccc2CC2(C(=O)Nc3ccc(C(N)=O)cc3)CCOCC2)c(C)c1 [CBK286422],95.9%
19,Cc1ccc(-c2ccccc2CC2(C(=O)Nc3cccc(C(N)=O)c3)CCOCC2)c(C)c1 [CBK286423],92.7%
20,COc1ccc(F)cc1-c1ccccc1CC1(C(=O)NCCc2ccccc2)CCOCC1 [CBK286424],97.5%
21,COc1ccccc1-c1ccccc1CC1(C(=O)NCc2ccc(F)cc2)CCOCC1 [CBK286425],90%
22,COc1ccccc1-c1ccccc1CC1(C(=O)NCc2cccc(F)c2)CCOCC1 [CBK286426],96.9%
23,COc1ccc(-c2ccccc2CC2(C(=O)NCc3cccs3)CCOCC2)cc1 [CBK286429],92.3%
24,Cc1ccc(CO)cc1NC(=O)[C@@H]1CN(Cc2ccccc2)C[C@H]1C(=O)c1ccc(F)cc1 [CBK286431],105%
25,CC(=O)N1CCc2sccc2C1c1ccc(NC(=O)c2ccccc2F)cc1 (centres unmarked) [CBK286433],84.2%
26,CC(=O)N1CCc2sccc2C1c1ccccc1NC(=O)c1ccco1 (centres unmarked) [CBK286436],98.1%
27,OC(CN1CCC(O)(Cn2cnc3ccccc32)CC1)c1ccc(-c2ccccc2)cc1 (centres unmarked) [CBK286437],89%

row,SMILES,"viability at 28.5 h, 10 µM"
1,CC1Cc2cc(C(O)CN3CCCC3)ccc2N1C(=O)C1CC1 (centres unmarked) [CBK286440],94.9%
2,CC(=O)N1CCc2sccc2C1c1ccc(NCc2ccc(F)cc2)cc1 (centres unmarked) [CBK286442],90.3%
3,COc1ccc(CNc2ccc(C3c4ccsc4CCN3C(C)=O)cc2)cc1 (centres unmarked) [CBK286444],102%
4,COCC(=O)N1CCc2sccc2C1c1ccc(NCc2ccccc2F)cc1 (centres unmarked) [CBK286446],96.6%
5,O=C(NCc1cccs1)c1ccc2c(=O)n3c(nc2c1)CCN(Cc1ccccc1)CC3 [CBK286448],100%
6,Cc1nn(-c2ccccc2)c2nc(O)c(CNC(c3ccccc3)c3ccco3)cc12 (centres unmarked) [CBK286449],83.8%
7,CC(=O)N1CCc2sccc2C1c1ccc(NCc2ccc(F)c(F)c2)cc1 (centres unmarked) [CBK286452],101%
8,COCC(=O)N1CCc2sccc2C1c1ccc(NCc2cccc(OC)c2)cc1 (centres unmarked) [CBK286454],92.9%
9,CC(=O)N1CCc2sccc2C1c1ccc(NCc2ccc(F)cc2F)cc1 (centres unmarked) [CBK286455],93.8%
10,COCC(=O)N1CCc2sccc2C1c1ccc(NCc2ccc(F)cc2F)cc1 (centres unmarked) [CBK286460],100%
11,CCOc1ccccc1CNc1ccc(C2c3ccsc3CCN2C(=O)COC)cc1 (centres unmarked) [CBK286461],88.5%
12,O=C(Cn1nnc2ccccc21)c1ccc2c(c1)CCN2S(=O)(=O)c1ccccc1 [CBK286464],101%
13,CC(=O)N1CCc2sccc2C1c1ccc(NC(=O)c2cccc(F)c2)cc1 (centres unmarked) [CBK286466],83.8%
14,COCC(=O)N1CCc2sccc2C1c1ccc(NC(=O)c2ccc(OC)cc2)cc1 (centres unmarked) [CBK286467],103%
15,COc1ccc(-c2ccc(CN(Cc3ccc4c(c3)OCO4)CC(C)O)cc2)cc1 (centres unmarked) [CBK286470],95%
16,COc1ccc(-c2ccccc2)cc1CN(Cc1ccc2c(c1)OCO2)CC(C)O (centres unmarked) [CBK286471],89.7%
17,COc1cc2c(cc1CN(Cc1ccc3c(c1)OCO3)CC(C)O)CCC2 (centres unmarked) [CBK286473],91.6%
18,CC(O)CN(Cc1ccc(-n2cnc3ccccc32)cc1)Cc1ccc2c(c1)OCO2 (centres unmarked) [CBK286475],101%
19,Cc1ccccc1C1(O)CCN(C(=O)C(c2cccs2)c2cccs2)CC1 [CBK286483],106%
20,Fc1ccc(CN(Cc2ccsc2)[C@@H]2COC[C@H]2c2ccc(F)cc2)cc1 [CBK286486],92.8%
21,COc1ccc(CN(Cc2cccs2)[C@@H]2COC[C@H]2c2ccc(F)cc2)cc1 [CBK286487],90.6%
22,COc1ccc(CN(Cc2ccc(NC(C)=O)cc2)[C@@H]2COC[C@H]2c2ccc(F)cc2)cc1 [CBK286488],105%
23,CN(C(=O)c1c[nH]nc1C1CCCN(Cc2ccnc3ccccc23)C1)C1CCCCC1 (centres unmarked) [CBK286491],99.3%
24,COc1ccc(CC(=O)N2CCCCC2c2ccc(Cc3cccc(F)c3)nc2)cc1 (centres unmarked) [CBK286493],90.3%
25,Cc1ccc(C)c(C2CCCN2C(=O)c2ccc(=O)n(CC(=O)Nc3ccc(F)cc3)c2)c1 (centres unmarked) [CBK286495],93.4%
26,CC(C)(C(=O)N1CCC(CC(=O)NCCc2ccccc2F)CC1)c1ccc(F)cc1 [CBK286497],104%
